According to the supplement of paper PMC10307832:

Compound: CC(C)CCN1c2nc(Nc3cc(F)c(O)c(F)c3)ncc2N(C)C(=O)C1C [BI-D1870] + O=C(c1cc(Cc2n[nH]c(=O)c3ccccc23)ccc1F)N1CCN(C(=O)C2CC2)CC1 [Olaparib] (partner 8 µM)
Assay: relative viability (nuclei count vs DMSO), 5 days (fraction); higher = more cells survive
Conditions: first compound 0.04 µM
Method in brief: (§1)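 Values are medians from duplicate plates. Each reflects relative viability, defined as the nuclei count of treated wells over that of vehicle wells. Lung cancer cell lines in 1536-well plates were pin-tool dosed one day after seeding with one drug alone or with a fixed anchor-drug dose plus five library-drug doses (not always all listed) in √10 steps, then fixed, stained and imaged at 4× after 5 days.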

First: NCI-H1975
Second: RERF-LC-KJ
The relative viability of the first is lower: 0.869 for the first, 1.09 for the second.

Going from ABC-1 to NCI-H358, the relative viability falls from 0.751 to 0.685.

Going from NCI-H650 to PC-3 [JPC-3], the relative viability rises from 0.443 to 1.25.

Same assay, conditions: first compound 0.1265 µM

Going from NCI-H1975 to RERF-LC-KJ, the relative viability rises from 0.708 to 0.831.

Compared with ABC-1, NCI-H358 is lower in relative viability: 0.782 for the first, 0.548 for the second.

Going from NCI-H650 to PC-3 [JPC-3], the relative viability rises from 0.375 to 1.08.

Same assay, conditions: first compound 0.4 µM

Going from NCI-H1975 to RERF-LC-KJ, the relative viability rises from 0.784 to 0.936.

Compared with ABC-1, NCI-H358 is lower in relative viability: 1 for the first, 0.592 for the second.

Going from NCI-H650 to PC-3 [JPC-3], the relative viability rises from 0.366 to 1.08.

Same assay, conditions: first compound 1.265 µM

First: NCI-H1975
Second: RERF-LC-KJ
The relative viability of the first is lower: 0.731 for the first, 0.914 for the second.

Going from ABC-1 to NCI-H358, the relative viability falls from 0.613 to 0.485.

Compared with NCI-H650, PC-3 [JPC-3] is higher in relative viability: 0.369 for the first, 0.966 for the second.

Same assay, conditions: first compound 4 µM

Compared with NCI-H1975, RERF-LC-KJ is lower in relative viability: 0.499 for the first, 0.306 for the second.

Going from ABC-1 to NCI-H358, the relative viability falls from 0.666 to 0.35.

Going from NCI-H650 to PC-3 [JPC-3], the relative viability rises from 0.315 to 0.831.

Compound: O=c1ncccn1[C@@H]1O[C@H](CO)[C@@H](O)[C@H]1O [Zebularine] + CS(=O)(=O)N1CCN(Cc2cc3nc(-c4cccc5[nH]ncc45)nc(N4CCOCC4)c3s2)CC1 [Pictilisib] (partner 1 µM)
Assay: as above
Conditions: first compound 1 µM
Method in brief: as §1

Going from NCI-H1975 to RERF-LC-KJ, the relative viability rises from 0.305 to 0.662.

Compared with ABC-1, NCI-H358 is lower in relative viability: 0.62 for the first, 0.344 for the second.

Compared with NCI-H650, PC-3 [JPC-3] is lower in relative viability: 0.886 for the first, 0.745 for the second.

Same assay, conditions: first compound 3.162 µM

First: NCI-H1975
Second: RERF-LC-KJ
The relative viability of the first is lower: 0.313 for the first, 0.485 for the second.

Going from ABC-1 to NCI-H358, the relative viability falls from 0.326 to 0.28.

Going from NCI-H650 to PC-3 [JPC-3], the relative viability falls from 0.868 to 0.612.

Same assay, conditions: first compound 10 µM

Compared with NCI-H1975, RERF-LC-KJ is higher in relative viability: 0.291 for the first, 0.348 for the second.

Compared with ABC-1, NCI-H358 is lower in relative viability: 0.633 for the first, 0.395 for the second.

Compared with NCI-H650, PC-3 [JPC-3] is higher in relative viability: 0.445 for the first, 0.538 for the second.

Same assay, conditions: first compound 31.62 µM

Compared with NCI-H1975, RERF-LC-KJ is higher in relative viability: 0.253 for the first, 0.565 for the second.

First: ABC-1
Second: NCI-H358
The relative viability of the first is higher: 0.564 for the first, 0.325 for the second.

First: NCI-H650
Second: PC-3 [JPC-3]
The relative viability of the first is lower: 0.374 for the first, 0.738 for the second.

Same assay, conditions: first compound 100 µM

Going from NCI-H1975 to RERF-LC-KJ, the relative viability rises from 0.175 to 0.474.

First: ABC-1
Second: NCI-H358
The relative viability of the first is higher: 0.439 for the first, 0.212 for the second.

Going from NCI-H650 to PC-3 [JPC-3], the relative viability rises from 0.27 to 0.478.

Compound: O=c1ncccn1[C@@H]1O[C@H](CO)[C@@H](O)[C@H]1O [Zebularine] + NC(=O)Nc1cc(-c2cccc(F)c2)sc1C(=O)N[C@H]1CCCNC1 [AZD7762] (partner 0.2 µM)
Assay: as above
Conditions: first compound 1 µM
Method in brief: as §1

Going from NCI-H1975 to RERF-LC-KJ, the relative viability rises from 0.747 to 1.11.

Going from ABC-1 to NCI-H358, the relative viability falls from 0.816 to 0.591.

First: NCI-H650
Second: PC-3 [JPC-3]
The relative viability of the first is higher: 1.03 for the first, 0.933 for the second.

Same assay, conditions: first compound 3.162 µM

Compared with NCI-H1975, RERF-LC-KJ is higher in relative viability: 0.748 for the first, 1 for the second.

Going from NCI-H358 to NCI-H650, the relative viability rises from 0.386 to 1.04.

Work on PC-3 [JPC-3] yielded a relative viability of 0.944.

Same assay, conditions: first compound 10 µM

First: NCI-H1975
Second: RERF-LC-KJ
The relative viability of the first is lower: 0.549 for the first, 0.896 for the second.

Compared with ABC-1, NCI-H358 is lower in relative viability: 0.554 for the first, 0.484 for the second.

First: NCI-H650
Second: PC-3 [JPC-3]
The relative viability of the first is higher: 0.908 for the first, 0.618 for the second.

Same assay, conditions: first compound 31.62 µM

Compared with NCI-H1975, RERF-LC-KJ is higher in relative viability: 0.499 for the first, 1.13 for the second.

Compared with ABC-1, NCI-H358 is lower in relative viability: 0.538 for the first, 0.451 for the second.

Compared with NCI-H650, PC-3 [JPC-3] is higher in relative viability: 0.551 for the first, 0.826 for the second.

Same assay, conditions: first compound 100 µM

Compared with NCI-H1975, RERF-LC-KJ is higher in relative viability: 0.345 for the first, 0.959 for the second.

Going from ABC-1 to NCI-H358, the relative viability falls from 0.54 to 0.333.

Going from NCI-H650 to PC-3 [JPC-3], the relative viability rises from 0.317 to 0.611.

Compound: O=c1ncccn1[C@@H]1O[C@H](CO)[C@@H](O)[C@H]1O [Zebularine] + Nc1ncn([C@H]2C[C@H](O)[C@@H](CO)O2)c(=O)n1 [Decitabine] (partner 2 µM)
Assay: as above
Conditions: first compound 1 µM
Method in brief: as §1

Compared with NCI-H1975, RERF-LC-KJ is higher in relative viability: 0.428 for the first, 0.828 for the second.

Compared with ABC-1, NCI-H358 is lower in relative viability: 1.13 for the first, 0.219 for the second.

Compared with NCI-H650, PC-3 [JPC-3] is higher in relative viability: 0.28 for the first, 0.781 for the second.

Same assay, conditions: first compound 3.162 µM

Compared with NCI-H1975, RERF-LC-KJ is higher in relative viability: 0.346 for the first, 0.733 for the second.

First: ABC-1
Second: NCI-H358
The relative viability of the first is higher: 0.68 for the first, 0.172 for the second.

First: NCI-H650
Second: PC-3 [JPC-3]
The relative viability of the first is lower: 0.285 for the first, 0.817 for the second.

Same assay, conditions: first compound 10 µM

Going from NCI-H1975 to RERF-LC-KJ, the relative viability rises from 0.345 to 0.587.

First: ABC-1
Second: NCI-H358
The relative viability of the first is higher: 0.888 for the first, 0.178 for the second.

Going from NCI-H650 to PC-3 [JPC-3], the relative viability rises from 0.31 to 0.755.

Same assay, conditions: first compound 31.62 µM

First: NCI-H1975
Second: RERF-LC-KJ
The relative viability of the first is lower: 0.35 for the first, 0.85 for the second.

First: ABC-1
Second: NCI-H358
The relative viability of the first is higher: 0.577 for the first, 0.214 for the second.

Compared with NCI-H650, PC-3 [JPC-3] is higher in relative viability: 0.298 for the first, 0.842 for the second.

Same assay, conditions: first compound 100 µM

First: NCI-H1975
Second: RERF-LC-KJ
The relative viability of the first is lower: 0.267 for the first, 0.751 for the second.

Compared with ABC-1, NCI-H358 is lower in relative viability: 0.495 for the first, 0.144 for the second.

Going from NCI-H650 to PC-3 [JPC-3], the relative viability rises from 0.297 to 0.659.
